From patent US5763443A, “MDR resistance treatment and novel pharmaceutically active riminophenazines” (priority 1994, dated 1998)
In brackets after ≈: the same amount, converted by molar mass. Like-named read-outs stand apart in the source and are kept apart here.

Tests used:
[1] = tested on: multi-drug resistant (MDR) lung carcinoma cell line H69/LX4; experiment: in vitro; conditions: for INCREASED SENSITIVITY H69/Lx4: Table VIII, values equal IC50 NONE / IC50 with VB 25 ng/ml of Table VII, 10080 min
Description: The riminophenazines of the above formula (I), contain an imino group. […] The potency of compounds of the above general formula, as inhibitors of multi-drug resistance, was assessed by sensitization of a P-glycoprotein positive cell line to drugs associated with this form of resistance. A human small cell lung cancer cell line H 69/P as well as a multi-drug resistance (MDR) sub-line H69/LX4 were used. These cell lines were obtained from the Medical Research Council Clinical Oncology and Radiotherapeutics Unit, Hills Road, Cambridge, England. The H69/LX4 line was selected in vitro by progressive exposure to increasing concentrations of doxorubicin in order to increase P-glycoprotein expression.
The cell lines used were human small cell lung cancer cell line HP69/P and a multi-drug resistant (MDR) sub-line H69/LX4, both of which were supplied by the MRC Clinical Oncology and Radiotherapeutics Unit, Hills Road, Cambridge, England. The maintenance of the cell lines and drug response assays was done as described by Twentyman et al in British Journal of Cancer Volume 65 pages 335-340. The H69/LX4 line was originally described by Twentyman et al in British Journal of Cancer Volume 53, pages 529-637 (1986).
The data in parenthesis represents fold sensitivity compared with the chemotherapeutic agent without the MDR inhibitor.
The results obtained, are illustrated graphically in FIGS. 4 to 7 of the accompanying drawings.
(§1) The general procedure set forth above was followed, i.e. 7 days incubation in the4 presence of doxorubicin at 12,5 ng/ml or vinblastine at 25 or 3 ng/ml.
(§2) The effects were examined over a seven (7) day exposure to different concentrations of B4119 and B4125 on the sensitivity of a doxorubicin resistant leukaemia cell line (K562/MMB) and a lung carcinoma cell line (H69/LX4) to doxorubicin (dox) and vinblastine (VB) using the MTT assay.

[2] = bio-availability (no method given)
[3] = tested on: MDR leukaemia cell line K562/MMB; experiment: cells; conditions: for INCREASED SENSITIVITY K 562/MMB: Table VIII, values equal IC50 NONE / IC50 with VB 3 ng/ml of Table VII, 10080 min; for MDR activity / sensitivity against cell line K562/MMP: compared with known reference compound B4100
Description: A third cell line (562/MMB) used was a MDR leukemia cell line selected in vitro by progressive exposure to increasing concentrations of vinblastine in order to increase P-glycoprotein expression. This cell line was developed in the Department of Immunology, University of Pretoria from K562 (ATCC CCL 243) supplied by Highveld Biological (Pty) Ltd, Sandton.
as §1, §2

[4] = tested on: gram positive microorganisms (Mycobacterium, Enterococcus, Streptococcus, methicillin resistant Staphylococcus); experiment: anti-bacterial activity
[5] = Homo sapiens, 168 h, read-out: IC 50 H69/Lx4 NONE
[6] = Homo sapiens, read-out: IC 50 H69/Lx4 DOX 12 ng/ml
[7] = Homo sapiens, read-out: IC 50 H69/Lx4 VB 25 ng/ml
[8] = Homo sapiens, K562, read-out: IC 50 K562/MMB DOX 12 ng/ml, Table VII, with doxorubicin 12 ng/ml
[9] = Homo sapiens, K562, read-out: IC 50 K562/MMB VB 3 ng/ml, Table VII, with vinblastine 3 ng/ml
[10] = Homo sapiens, read-out: IC50 H69/LX4 +VB (25 ng/ml)
[11] = Homo sapiens, read-out: IC50 H69/LX4 +dox (12 ng/ml)
[12] = Homo sapiens, read-out: IC50 H69/LX4 none
[13] = Homo sapiens, K562, 168 h, read-out: IC 50 K562/MMB NONE
[14] = Homo sapiens, K562, read-out: IC50 K562/MMB +VB (3 ng/ml), Table VI, with vinblastine 3 ng/ml
[15] = Homo sapiens, K562, read-out: IC50 K562/MMB +dox (12 ng/ml), Table VI, with doxorubicin 12 ng/ml
[16] = Homo sapiens, K562, read-out: IC50 K562/MMB none

Row | Structure (SMILES) | IC50 [1, 5] | IC50 [1, 6] | IC50 [1, 7] | INCREASED SENSITIVITY H69/Lx4 [1] | INCREASED SENSITIVITY K 562/MMB [3] | anti-bacterial activity [4] | IC50 [3, 8] | IC50 [3, 9] | MDR activity / sensitivity against cell line K562/MMP [3] | further results
1 | CC1(C)CC(N=c2cc3n(-c4ccc(C(F)(F)F)cc4)c4ccccc4nc-3cc2Nc2ccc(C(F)(F)F)cc2)CC(C)(C)N1 [Compound B4103, N,5-bis(4-trifluoromethylphenyl)-3,5-dihydro-3[(2',2',6',6'-tetramethyl-4-piperidyl)imino]-2-phenazinamine] | 0.755 µg/mL (≈ 1.18 µM) | 0.552 µg/mL (≈ 0.866 µM) | 0.145 µg/mL (≈ 0.227 µM) | 5.21 | 0.69 |  |  |  |  | MDR reversal properties ([1]; H69/LX4, with doxorubicin 12,5 ng/ml or vinblastine 25 ng/ml, FIGS. 4 to 7): Very good MDR reversal properties; bio-availability [2]: good bio-availability
2 | CC1(C)CC(N=c2cc3n(-c4cccc(C(F)(F)F)c4)c4ccccc4nc-3cc2Nc2cccc(C(F)(F)F)c2)CC(C)(C)N1 [Compound B4126, N,5-bis(3-trifluoromethyl-phenyl)-3,5-dihydro-3-[(2',2',6',6'-tetramethyl-4-piperidyl)-imino]-2-phenazinamine] | 0.699 µg/mL (≈ 1.1 µM) | 0.455 µg/mL (≈ 0.714 µM) | 0.26 µg/mL (≈ 0.408 µM) | 2.69 | 4.45 | Particularly active |  |  |  | 
3 | CC1(C)CC(N=c2cc3n(-c4cccc(Cl)c4)c4ccccc4nc-3cc2Nc2cccc(Cl)c2)CC(C)(C)N1 [Compound B4112, N,5-bis(3-chlorophenyl)-3,5-dihydro-3-[(2',2',6',6'-tetramethyl-4-piperidyl)-imino]-2-phenazinamine] | 0.62 µg/mL (≈ 1.09 µM) | 0.175 µg/mL (≈ 0.307 µM) | 0.029 µg/mL (≈ 0.0508 µM) | 21.38 | 19.5 |  | 0.066 µg/mL (≈ 0.116 µM) | 0.008 µg/mL (≈ 0.014 µM) | exceptionally good activity | MDR activity against the cell line H69/LX4 [1]: very good activity; IC50 ([1]; Homo sapiens, read-out: IC50, plus VB): 0.029 µg/mL; IC50 ([1]; Homo sapiens, read-out: IC50, plus doxo): 0.62 µg/mL; direct cytotoxic activity [3]: direct cytotoxic activity in this cell line at reasonably low concentrations; IC50 ([3]; Homo sapiens, K562, 168 h, read-out: IC 50 K562/MMB NONE, Table VII, riminophenazine alone, 7 day): 0.156 µg/mL (≈ 0.273 µM); IC50 ([3]; Homo sapiens, K562, read-out: IC50, alone, Table V, K562/MMB (first value column, head not given)): 0.156 µg/mL (≈ 0.273 µM); IC50 ([3]; Homo sapiens, K562, read-out: IC50, plus VB, Table V, K562/MMB, vinblastine 3 ng/ml): 0.008 µg/mL; IC50 ([3]; Homo sapiens, K562, read-out: IC50, plus doxo, Table V, K562/MMB, doxorubicin 12 ng/ml): 0.066 µg/mL; lowest concentration at which compound was active ([3]; K562/MMB, Example 6): 3 ng/mL
4 | CC1(C)CC(N=c2cc3n(-c4cc(Cl)cc(Cl)c4)c4ccccc4nc-3cc2Nc2cc(Cl)cc(Cl)c2)CC(C)(C)N1 [Compound B4121, N,5-bis(3,5-dichiorophenyl)-3,5-dihydro-3-[(2',2',6',6'-tetramethyl-4-pipendyl)-imino]-2-phenazinamine] | 1.23 µg/mL (≈ 1.92 µM) | 0.524 µg/mL (≈ 0.819 µM) | 0.162 µg/mL (≈ 0.253 µM) | 7.57 | 97.83 | Particularly active |  | 0.023 µg/mL (≈ 0.036 µM) | increased substantially and unexpectedly | 
5 | COc1cccc2c1C(=O)c1c(O)c3c(c(O)c1C2=O)C[C@@](O)(C(=O)CO)C[C@@H]3O[C@H]1C[C@H](N)[C@H](O)[C@H](C)O1 [Doxorubicin, reference compound] |  |  |  |  |  |  |  |  |  | cytotoxicity at 0.0125 µg/mL ([1]; Homo sapiens, 168 h, read-out: cytotoxic activity of chemotherapeutic agent at the concentration used with the riminophenazine): < 10%; cytotoxicity at 0.0125 µg/mL ([3]; Homo sapiens, K562, 168 h, read-out: cytotoxic activity of chemotherapeutic agent at the concentration used with the riminophenazine): < 10%
6 | CC1(C)CC(N=c2cc3n(-c4ccc(F)c(Cl)c4)c4ccccc4nc-3cc2Nc2ccc(F)c(Cl)c2)CC(C)(C)N1 [Compound B4119, N,5-bis(3-chloro-4-fluorophenyl)-3,5-dihydro-3-[(2',2',6',6'-tetramethyl-4-piperidyl)-imino]-2-phenazinamine] | 0.62 µg/mL (≈ 1.02 µM) | 0.6 µg/mL (≈ 0.989 µM) | 0.109 µg/mL (≈ 0.18 µM) | 5.69 | 1.46 | Particularly active | 0.147 µg/mL (≈ 0.242 µM) | 0.189 µg/mL (≈ 0.312 µM) |  | IC50 [1, 10]: 0.109 µg/mL (≈ 0.18 µM); IC50 [1, 11]: 0.6 µg/mL (≈ 0.989 µM); IC50 [1, 12]: 0.62 µg/mL (≈ 1.02 µM); IC50 [3, 13]: 0.276 µg/mL (≈ 0.455 µM); IC50 [3, 14]: 0.189 µg/mL (≈ 0.312 µM); IC50 [3, 15]: 0.147 µg/mL (≈ 0.242 µM); IC50 [3, 16]: 0.276 µg/mL (≈ 0.455 µM)
7 | CCN(CC)CCCN=c1cc2n(-c3ccc(Cl)c(Cl)c3)c3ccccc3nc-2cc1Nc1ccc(Cl)c(Cl)c1 [Compound B4154] | 1.33 µg/mL (≈ 2.17 µM) | 0.648 µg/mL (≈ 1.06 µM) | 0.378 µg/mL (≈ 0.616 µM) | 3.52 | 2.99 |  |  |  |  | 
8 | CC1(C)CC(N=c2cc3n(-c4cccc(Cl)c4)c4ccc(Cl)cc4nc-3cc2Nc2cccc(Cl)c2)CC(C)(C)N1 [Compound B4123, N,5-bis(3-chlorophenyl)-8-chloro-3,5-dihydro-3[(2',2',6',6'-tetramethyl-4-piperidyl)-imino]-2-phenazinamine] | 1.18 µg/mL (≈ 1.94 µM) | 1.02 µg/mL (≈ 1.69 µM) | 0.251 µg/mL (≈ 0.415 µM) | 4.69 | 6.80 |  |  | 0.049 µg/mL (≈ 0.081 µM) | exceptionally good activity | 
9 | CC1(C)CC(N=c2cc3n(-c4ccccc4Cl)c4ccccc4nc-3cc2Nc2ccccc2Cl)CC(C)(C)N1 [Compound B4125, N,5-bis(2-chlorophenyl)-3,5-dihydro-3-[(2',2',6',6'-tetramethyl-4-piperidyl)-imino]-2-phenazinamine] | 0.785 µg/mL (≈ 1.38 µM) | 0.521 µg/mL (≈ 0.913 µM) | 0.399 µg/mL (≈ 0.699 µM) | 1.97 | 11.96 | Particularly active | 0.188 µg/mL (≈ 0.329 µM) | 0.026 µg/mL (≈ 0.0456 µM) | exceptionally good activity | IC50 [1, 10]: 0.399 µg/mL (≈ 0.699 µM); IC50 [1, 11]: 0.521 µg/mL (≈ 0.913 µM); IC50 [1, 12]: 0.785 µg/mL (≈ 1.38 µM); IC50 [3, 13]: 0.311 µg/mL (≈ 0.545 µM); IC50 [3, 14]: 0.026 µg/mL (≈ 0.0456 µM); IC50 [3, 15]: 0.188 µg/mL (≈ 0.329 µM); IC50 [3, 16]: 0.311 µg/mL (≈ 0.545 µM)
10 | CC1(C)CC(N=c2cc3n(-c4ccc(Cl)cc4)c4ccc(Cl)cc4nc-3cc2Nc2ccc(Cl)cc2)CC(C)(C)N1 [Compound B4090] | 1.5 µg/mL (≈ 2.48 µM) | 1.01 µg/mL (≈ 1.66 µM) | 0.266 µg/mL (≈ 0.44 µM) | 5.64 | 7.30 |  |  | 0.027 µg/mL (≈ 0.0446 µM) | exceptionally good activity | 
